Results published in PubChem BioAssay AID2612 (Southern Research Specialized Biocontainment Screening …, 2010).
The source made the active and inactive calls. The rule behind the calls is not given here.

What was measured:
[1] = compound effect on polymyxin resistance, Typhi, OD600 (AID 2612); settings: Salmonella Typhi WT vs phoP-, polymyxin IC50 shift, OD600 24 h, at 150 µM; for polymyxin IC50 shift difference (WT - phoP-): stronger effect = higher value; for IC50 shift: measured here: polymyxin IC50 shift
[2] = test system: Salmonella Typhi WT vs phoP-, polymyxin IC50 shift, OD600 24 h; assay: as above

| SMILES | polymyxin IC50 shift difference (WT - phoP-) [1] | IC50 shift ([1]; WT strain) | IC50 shift ([1]; phoP- strain) | IC50 ([2]; WT polymyxin IC50 at 150 uM) [µM] | IC50 ([2]; phoP- polymyxin IC50 at 150 uM) [µM] | IC50 [2] [µM] |
| --- | --- | --- | --- | --- | --- | --- |
| COc1c(N2CCN(C(=S)NCc3ccccc3)C(C)C2)c(F)cc2c(=O)c(C(=O)O)cn(C3CC3)c12 (centres undefined) | -3.42 (inactive) | -4.5 | -1.08 | 7.25 | 3.83 | – |
| S=C(NCc1ccc(Cl)cc1)Nc1ccncc1 | – | -0.561 | -25.9 | 0.669 | 28.8 | 20 |
| O=C(Nc1ccc(Cl)cc1)N1CCCN(Cc2ccccc2F)C1 | -11.9 (inactive) | -12.1 | -0.267 | 14.9 | 3.07 | – |
| O=C1C2=C(Nc3ccccc3SC2c2ccco2)c2ccccc21 (centres undefined) | – | 1.28 | -24.4 | 1.47 | 27.4 | 4 |
| Cc1ccc(Nc2cc(C)c3c(O)cccc3n2)cc1C | 0.62 (inactive) | 2.64 | 2.02 | – | 0.893 | – |
| CCn1cc(C(=O)O)c(=O)c2cc(F)c(N3CCN(C(=S)NC(=O)c4ccccc4Cl)CC3)cc21 | -3.77 (inactive) | -1.35 | 2.42 | 3.45 | 0.0339 | – |
